# Measurements from PubChem BioAssay AID2060906 (Molecular Pharmacology Branch, DTP, NCI, 2025).
# Test system: 485176-168-R4-J1-PDC complex spheroid growth
# Experiment: Anticancer human tumor 485176-168-R4-J1-PDC patient-derived pancreatic adenocarcinoma cell line growth inhibition [RAS]
# Settings: for IC50: curve of first compound; for viability, T/C: stronger effect = lower value
# Outline: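 Tumour cells grown as complex spheroids with HUVEC endothelial cells and mesenchymal stem cells, treated with RAS pathway inhibitor combinations. Each agent spans half-log steps from near clinical Cmax, or 10 microM where Cmax is unknown.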
# 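Further: spheroids exposed to compounds for seven days before readout.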
# 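Wherever viability, T/C is given: luminescence viability expressed relative to DMSO vehicle wells set as 100%.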
compound,measurement,setting,value
CC(C)NCC(C(=O)N1CCN(c2ncnc3c2C(C)CC3O)CC1)c1ccc(Cl)cc1 (configuration not stated) + C#Cc1c(F)ccc2cc(O)cc(-c3ncc4c(N5CC6CCC(C5)N6)nc(OCC56CCCN5CC(F)C6)nc4c3F)c12,IC50,second compound 0.0316 µM,3290 nM
same,IC50,second compound 0.1 µM,851 nM
same,IC50,second compound 0.316 µM,2770 nM
same,IC50,second compound 1 µM,884 nM
same,IC50,second compound 3.16 µM,2120 nM
same,IC50,second compound 10 µM,1510 nM
same,"viability, T/C","second compound 0.0316 µM, first compound 0.0316 µM",113%
same,"viability, T/C","second compound 0.0316 µM, first compound 0.1 µM",99.2%
same,"viability, T/C","second compound 0.0316 µM, first compound 0.316 µM",84.7%
same,"viability, T/C","second compound 0.0316 µM, first compound 1 µM",70.1%
same,"viability, T/C","second compound 0.0316 µM, first compound 3.16 µM",47.3%
same,"viability, T/C","second compound 0.0316 µM, first compound 10 µM",38.5%
same,"viability, T/C","second compound 0.1 µM, first compound 0.0316 µM",99%
same,"viability, T/C","second compound 0.1 µM, first compound 0.1 µM",127%
same,"viability, T/C","second compound 0.1 µM, first compound 0.316 µM",72.8%
same,"viability, T/C","second compound 0.1 µM, first compound 1 µM",59.8%
same,"viability, T/C","second compound 0.1 µM, first compound 3.16 µM",45.6%
same,"viability, T/C","second compound 0.1 µM, first compound 10 µM",33.4%
same,"viability, T/C","second compound 0.316 µM, first compound 0.0316 µM",109%
same,"viability, T/C","second compound 0.316 µM, first compound 0.1 µM",96.5%
same,"viability, T/C","second compound 0.316 µM, first compound 0.316 µM",72.7%
same,"viability, T/C","second compound 0.316 µM, first compound 1 µM",65.4%
same,"viability, T/C","second compound 0.316 µM, first compound 3.16 µM",51.8%
same,"viability, T/C","second compound 0.316 µM, first compound 10 µM",31.1%
same,"viability, T/C","second compound 1 µM, first compound 0.0316 µM",92.2%
same,"viability, T/C","second compound 1 µM, first compound 0.1 µM",105%
same,"viability, T/C","second compound 1 µM, first compound 0.316 µM",72.4%
same,"viability, T/C","second compound 1 µM, first compound 1 µM",51.4%
same,"viability, T/C","second compound 1 µM, first compound 3.16 µM",48.5%
same,"viability, T/C","second compound 1 µM, first compound 10 µM",35.3%
same,"viability, T/C","second compound 3.16 µM, first compound 0.0316 µM",99.3%
same,"viability, T/C","second compound 3.16 µM, first compound 0.1 µM",96.1%
same,"viability, T/C","second compound 3.16 µM, first compound 0.316 µM",82.9%
same,"viability, T/C","second compound 3.16 µM, first compound 1 µM",53.8%
same,"viability, T/C","second compound 3.16 µM, first compound 3.16 µM",52%
same,"viability, T/C","second compound 3.16 µM, first compound 10 µM",31%
same,"viability, T/C","second compound 10 µM, first compound 0.0316 µM",104%
same,"viability, T/C","second compound 10 µM, first compound 0.1 µM",87.9%
same,"viability, T/C","second compound 10 µM, first compound 0.316 µM",82.6%
same,"viability, T/C","second compound 10 µM, first compound 1 µM",55.8%
same,"viability, T/C","second compound 10 µM, first compound 3.16 µM",36.8%
same,"viability, T/C","second compound 10 µM, first compound 10 µM",33.9%
